This experiment has as its target T1, human pancreatic α-amylase (HPA) (Homo sapiens, UniProt P04746).
T1 construct: purchased International Reagents Co., Ltd. Calibzyme AMY
T1 sequence (P04746 16-511): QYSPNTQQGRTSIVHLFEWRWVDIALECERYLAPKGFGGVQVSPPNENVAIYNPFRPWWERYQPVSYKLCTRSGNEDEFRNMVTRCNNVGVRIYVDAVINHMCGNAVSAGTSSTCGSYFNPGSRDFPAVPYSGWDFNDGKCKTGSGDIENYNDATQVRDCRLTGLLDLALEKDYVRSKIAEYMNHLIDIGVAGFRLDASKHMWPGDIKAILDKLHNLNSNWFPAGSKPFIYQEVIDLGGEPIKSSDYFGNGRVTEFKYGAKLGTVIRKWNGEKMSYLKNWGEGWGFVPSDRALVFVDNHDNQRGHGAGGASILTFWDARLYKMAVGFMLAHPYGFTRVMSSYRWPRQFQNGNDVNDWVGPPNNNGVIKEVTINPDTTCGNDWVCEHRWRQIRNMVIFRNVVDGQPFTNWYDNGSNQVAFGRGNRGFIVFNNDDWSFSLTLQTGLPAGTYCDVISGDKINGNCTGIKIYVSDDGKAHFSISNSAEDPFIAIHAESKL
Kind of experiment: α-Amylase inhibitory action (Blue Starch, Neo Amylase Test). The experiment is classed as biochemical. The conditions noted are these: final concentration required for 50% inhibition of HPA solution, 37° C.

pIC50: −log10 of the molar value.

Broadly, the pIC50 is the negative decadic logarithm of the IC50, by convention in mol/L. Higher therefore signals a low IC50.

Method: α-Amylase Inhibitory Action
(1) Preparation of Human α-Amylase Solution
Calibzyme AMY (International Reagents Co., Ltd.) was used for the human pancreatic α-amylase (HPA). Distilled water was added to the commercially available HPA and dissolved to a concentration of 200 IU/l to prepare the α-amylase solution. The activity of the α-amylase was measured using a commercially available α-amylase assay reagent (Neo Amylase Test Daiichi, Daiichi Pure Chemicals Co., Ltd.).
(2) Preparation of Inhibitory Solutions
Each test compound was prepared with distilled water to a final concentration of 0.1 to 30 μg/ml.
(3) Measurement of Human α-Amylase Inhibitory Activity of Inhibitory Solutions
After incubating for 10 minutes at 37° C., a Blue Starch tablet (Neo Amylase Test Daiichi, Daiichi Pure Chemicals Co., Ltd.) was added followed by stirring for about 10 seconds with a mixer, and the mixture was then heated for 30 minutes at 37° C. […] In addition, a mixture to which distilled water was added instead of α-amylase solution was used as a blank.

`COC[C@H]1O[C@@H](O[C@H]2[C@H](O)[C@@H](O)C(O[C@H]3[C@H](O)CN[C@@H]3CO)O[C@@H]2CO)[C@H](O)[C@@H](O)[C@@H]1O` (stereo partly drawn) [Reference Example 8, (2R,3R,4R)-4-Hydroxy-2-hydroxymethylpyrrolidin-3-yl 4-O-(6-methoxy-6-deoxy-β-D-glucopyranosyl)-D-glucopyranoside] had a pIC50 of 6.07.
